Results reported in patent US8013153B2, “Substituted pyrimidine kinase inhibitors” (Janssen Pharmaceutica, N.V., priority 2006, dated 2011).

What was measured:
CDK1:Cyclin-B = biological target: T1, CDK1:Cyclin-B (Homo sapiens, UniProt P06493); assay: CDK1 Screening Assay; assay type: biochemical
T1 construct: purchased New England Biolabs, Beverly, Mass; 6020; host or cells: insect cells

A375 malignant melanoma = assay: Inhibition of in vitro cell proliferation (A375); assay type: cell-based, human; settings: Homo sapiens, A-375, 14C-thymidine incorporation;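 also: cells plated for 24 h, given compound for 24 h, then labelled with 14C-thymidine for another 24 h, with DMSO-only wells as control and counts read by scintillation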
HER2 cytoplasmic domain = biological target: T2, HER2 cytoplasmic domain (Homo sapiens, UniProt P04626); assay: HER2 Kinase Screening Assay; assay type: biochemical; settings: > means no observed 50% inhibition at the indicated test concentration; ~ means approximately 50% inhibition at that concentration
T2 construct: polyhistidine (N)
T2 sequence (P04626 676-1255 limits assumed): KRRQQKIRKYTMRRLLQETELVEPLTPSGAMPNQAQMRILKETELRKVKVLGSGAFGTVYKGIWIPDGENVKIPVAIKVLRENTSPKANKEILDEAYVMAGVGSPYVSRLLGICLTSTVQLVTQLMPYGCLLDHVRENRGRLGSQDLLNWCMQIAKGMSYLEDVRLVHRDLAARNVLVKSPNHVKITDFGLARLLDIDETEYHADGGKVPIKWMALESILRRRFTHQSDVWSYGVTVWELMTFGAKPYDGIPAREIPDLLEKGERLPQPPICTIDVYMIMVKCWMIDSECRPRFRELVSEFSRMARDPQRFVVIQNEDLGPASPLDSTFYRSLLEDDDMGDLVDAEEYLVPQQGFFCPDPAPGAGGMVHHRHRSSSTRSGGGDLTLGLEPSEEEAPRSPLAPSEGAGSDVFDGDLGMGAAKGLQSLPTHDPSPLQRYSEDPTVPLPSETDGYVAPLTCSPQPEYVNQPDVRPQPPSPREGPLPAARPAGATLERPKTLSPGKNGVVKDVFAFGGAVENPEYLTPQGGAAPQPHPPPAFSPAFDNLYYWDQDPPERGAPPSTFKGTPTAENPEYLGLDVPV

murine Aurora-A = biological target: T3, murine Aurora-A (Mus musculus, UniProt P97477); assay: Aurora-A Screening Assay; assay type: biochemical
T3 construct: replaced with the full length protein encoding the murine Aurora-A; made in house; host or cells: sf9 insect cells
T3 sequence (P97477 1-395): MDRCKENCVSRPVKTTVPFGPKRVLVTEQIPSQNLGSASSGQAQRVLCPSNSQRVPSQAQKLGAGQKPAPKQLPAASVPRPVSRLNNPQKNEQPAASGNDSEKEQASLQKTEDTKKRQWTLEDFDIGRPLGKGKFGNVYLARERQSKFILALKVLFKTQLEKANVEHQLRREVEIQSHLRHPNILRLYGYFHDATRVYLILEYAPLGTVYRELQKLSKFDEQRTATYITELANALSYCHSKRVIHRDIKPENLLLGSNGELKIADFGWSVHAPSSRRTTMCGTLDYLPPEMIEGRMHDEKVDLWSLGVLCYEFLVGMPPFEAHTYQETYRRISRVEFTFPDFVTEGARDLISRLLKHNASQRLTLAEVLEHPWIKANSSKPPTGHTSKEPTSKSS

HCT-116 colon carcinoma = assay: Inhibition of in vitro cell proliferation (HCT116); assay type: cell-based, human; settings: Homo sapiens, HCT-116, 14C-thymidine incorporation;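 also: cells exposed to compound for 24 h, then 14C-thymidine added for a further 24 h and its uptake into DNA counted by scintillation, DMSO-only wells as control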
RET cytoplasmic domain = biological target: T4, RET cytoplasmic domain (Homo sapiens, UniProt P07949); assay: RET Kinase Screening Assay; assay type: biochemical
T4 construct: the RET cytoplasmic domain consisting of the last 492 amino acids of the intracellular domain; histidine tag (N); made in house; host or cells: Hi5 insect cells
T4 sequence (P07949 658-1114 limits assumed): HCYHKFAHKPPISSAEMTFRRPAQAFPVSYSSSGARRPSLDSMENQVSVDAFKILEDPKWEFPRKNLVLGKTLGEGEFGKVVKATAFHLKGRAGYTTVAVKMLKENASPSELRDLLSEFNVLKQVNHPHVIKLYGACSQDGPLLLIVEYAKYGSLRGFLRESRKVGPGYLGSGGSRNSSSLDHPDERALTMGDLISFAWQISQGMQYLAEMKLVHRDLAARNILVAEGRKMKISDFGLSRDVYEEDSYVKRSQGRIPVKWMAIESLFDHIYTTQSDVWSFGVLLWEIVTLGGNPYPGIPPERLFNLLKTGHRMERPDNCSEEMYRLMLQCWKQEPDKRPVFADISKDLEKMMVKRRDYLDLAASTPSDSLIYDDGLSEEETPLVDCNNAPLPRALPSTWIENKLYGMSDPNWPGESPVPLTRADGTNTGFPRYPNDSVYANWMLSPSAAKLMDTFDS

[1] = tested on: HeLa cervical adenocarcinoma; assay: Inhibition of in vitro cell proliferation (HeLa); assay type: cell-based, human; settings: Homo sapiens, 14C-thymidine incorporation;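 also: cells exposed to compound for 24 h, then labelled 24 h with methyl 14C-thymidine, with uptake into DNA counted by scintillation against DMSO-only control wells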
[2] = biological target: T5, rat VEGF-R2 kinase domain (Rattus norvegicus, UniProt O08775); assay: VEGF-R2 Screening Assay; assay type: biochemical; settings: > means no observed 50% inhibition at the indicated test concentration; ~ means approximately 50% inhibition at that concentration; read-out: IC50 VEGF-R2
T5 construct: amino acids 786-1343 of the rat VEGF-R2 kinase domain; polyhistidine (N)
T5 sequence (O08775 786-1343): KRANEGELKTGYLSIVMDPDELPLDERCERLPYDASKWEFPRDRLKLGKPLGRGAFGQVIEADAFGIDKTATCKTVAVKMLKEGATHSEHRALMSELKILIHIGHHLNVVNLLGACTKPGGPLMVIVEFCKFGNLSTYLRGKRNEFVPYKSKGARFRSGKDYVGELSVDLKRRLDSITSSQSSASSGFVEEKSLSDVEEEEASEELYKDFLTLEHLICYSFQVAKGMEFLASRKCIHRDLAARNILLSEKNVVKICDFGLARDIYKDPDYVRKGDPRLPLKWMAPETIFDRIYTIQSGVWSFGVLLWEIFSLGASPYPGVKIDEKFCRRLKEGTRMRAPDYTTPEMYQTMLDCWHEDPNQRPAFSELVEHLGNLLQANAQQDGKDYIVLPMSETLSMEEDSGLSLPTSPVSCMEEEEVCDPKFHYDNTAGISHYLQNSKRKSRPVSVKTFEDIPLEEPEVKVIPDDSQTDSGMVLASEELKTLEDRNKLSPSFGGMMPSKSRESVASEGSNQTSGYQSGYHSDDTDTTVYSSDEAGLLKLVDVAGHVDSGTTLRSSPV

T1 sequence (P06493 whole entry): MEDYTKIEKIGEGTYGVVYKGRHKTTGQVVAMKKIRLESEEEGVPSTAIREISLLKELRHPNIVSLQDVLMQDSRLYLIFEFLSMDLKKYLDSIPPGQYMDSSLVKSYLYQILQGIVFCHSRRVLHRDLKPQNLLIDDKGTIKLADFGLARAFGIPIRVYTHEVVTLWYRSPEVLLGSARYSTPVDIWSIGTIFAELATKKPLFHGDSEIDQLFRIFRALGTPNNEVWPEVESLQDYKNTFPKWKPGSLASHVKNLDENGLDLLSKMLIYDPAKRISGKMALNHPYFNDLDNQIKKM
T1 sequence (P14635 whole entry partner): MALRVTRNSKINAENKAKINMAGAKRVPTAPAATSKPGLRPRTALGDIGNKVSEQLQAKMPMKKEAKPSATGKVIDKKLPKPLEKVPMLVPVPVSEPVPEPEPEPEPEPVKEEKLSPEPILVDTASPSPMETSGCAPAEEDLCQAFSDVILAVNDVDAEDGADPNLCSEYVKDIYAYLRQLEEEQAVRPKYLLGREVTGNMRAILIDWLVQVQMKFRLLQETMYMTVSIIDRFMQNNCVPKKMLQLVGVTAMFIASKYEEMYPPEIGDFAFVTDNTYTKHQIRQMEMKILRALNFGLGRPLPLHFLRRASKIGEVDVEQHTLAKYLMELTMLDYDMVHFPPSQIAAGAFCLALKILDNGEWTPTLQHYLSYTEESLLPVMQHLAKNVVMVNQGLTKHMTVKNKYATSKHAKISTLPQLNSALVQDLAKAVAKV

Structure (SMILES) | IC50 (CDK1:Cyclin-B) [µM] | IC50 (A375 malignant melanoma) [µM] | IC50 (HER2 cytoplasmic domain) [µM] | IC50 (murine Aurora-A) [µM] | IC50 (HCT-116 colon carcinoma) [µM] | IC50 (RET cytoplasmic domain) [µM] | IC50 [1] [µM] | IC50 [2] [µM]
Cc1cc2c(F)c(Oc3ncnc(N)c3C=NOCCN3CCCC3)ccc2[nH]1 [Cpd 13, 4-amino-6-(4-fluoro-2-methyl-1H-indol-5-yloxy)-pyrimidine-5-carbaldehyde O-(2-pyrrolidin-1yl-ethyl)-oxime] | > 100 | 2.16 | > 10 | ~100 | 4.61 | > 100 | 4.22 | –
C#CCON=Cc1c(N)ncnc1Oc1ccc2[nH]c(C)cc2c1F [Cpd 30, 4-amino-6-(4-fluoro-2-methyl-1H-indol-5-yloxy)-pyrimidine-5-carbaldehyde O-prop-2-ynyl-oxime] | > 100 | – | > 10 | > 100 | – | ~10 | – | –
Cc1cc2c(F)c(Oc3ncnc(N)c3C=NOCc3ccccc3)ccc2[nH]1 [Cpd 36, 4-amino-6-(4-fluoro-2-methyl-1H-indol-5-yloxy)-pyrimidine-5-carbaldehyde O-benzyl-oxime] | > 100 | 0.062 | > 100 | > 100 | 0.311 | > 100 | 0.266 | –
CCCON=Cc1c(N)ncnc1Oc1ccc2[nH]c(C)cc2c1F [Cpd 34, 4-amino-6-(4-fluoro-2-methyl-1H-indol-5-yloxy)-pyrimidine-5-carbaldehyde O-propyl-oxime] | > 100 | 0.028 | > 100 | > 100 | 0.03 | ~10 | 0.04 | –
Cc1cc2c(F)c(Oc3ncnc(N)c3C=NOCCN(C)C)ccc2[nH]1 [Cpd 15, 4-amino-6-(4-fluoro-2-methyl-1H-indol-5-yloxy)-pyrimidine-5-carbaldehyde O-(2-dimethylamino-ethyl)-oxime] | > 100 | – | 36.1 | > 100 | – | > 100 | – | –
Cc1cc2c(F)c(Oc3ncnc(N)c3C=NOCCN3CCOCC3)ccc2[nH]1 [Cpd 14, 4-amino-6-(4-fluoro-2-methyl-1H-indol-5-yloxy)-pyrimidine-5-carbaldehyde O-(2-morpholin-4-yl-ethyl)-oxime] | > 100 | – | ~10 | > 100 | – | > 100 | – | –
CON=Cc1c(N)ncnc1Oc1ccc(NC(=O)Nc2cccc(F)c2)c(Cl)c1 [Cpd 57, 1-{4-[6-amino-5-(methoxyimino-methyl)-pyrimidin-4-yloxy]-2-chloro-phenyl}-3-(3-fluoro-phenyl)-urea] | > 100 | > 10 | > 10 | > 100 | > 10 | – | > 10 | 0.0017
CON=Cc1c(N)ncnc1Oc1ccc(NC(=O)Nc2ccccn2)c(Cl)c1 [Cpd 86, 1-{4-[6-amino-5-(methoxyimino-methyl)-pyrimidin-4-yloxy]-2-chloro-phenyl}-3-pyridin-2-yl-urea] | > 100 | 6.25 | > 100 | > 100 | > 10 | – | > 10 | 0.034
CON=Cc1c(N)ncnc1Oc1ccc(NC(=O)Nc2cccnc2)c(Cl)c1 [Cpd 87, 1-{4-[6-amino-5-(methoxyimino-methyl)-pyrimidin-4-yloxy]-2-chloro-phenyl}-3-pyridin-3-yl-urea] | > 100 | 3.41 | > 1 | > 100 | 4.67 | – | 4.63 | 0.01

Further lines, results first:

IC50 (CDK1:Cyclin-B) [µM] | IC50 (A375 malignant melanoma) [µM] | IC50 (HER2 cytoplasmic domain) [µM] | IC50 (murine Aurora-A) [µM] | IC50 (HCT-116 colon carcinoma) [µM] | IC50 (RET cytoplasmic domain) [µM] | IC50 [1] [µM] | IC50 [2] [µM] | Structure (SMILES)
> 100 | 0.446 | > 100 | > 100 | 3 | > 100 | 0.607 | – | CCCCON=Cc1c(N)ncnc1Oc1ccc2[nH]c(C)cc2c1F [Cpd 37, 4-amino-6-(4-fluoro-2-methyl-1H-indol-5-yloxy)-pyrimidine-5-carbaldehyde O-butyl-oxime]
> 100 | 0.886 | > 10 | > 100 | 2.62 | > 10 | 1.82 | – | CON=Cc1c(N)ncnc1Oc1ccc2cccnc2c1 [Cpd 6, 4-amino-6-(quinolin-7-yloxy)-pyrimidine-5-carbaldehyde O-methyl-oxime]
> 100 | 0.783 | 0.697 | > 10 | 3.52 | 2.23 | 1.87 | – | CO/N=C/c1c(N)ncnc1Oc1ccc2[nH]ccc2c1 [Cpd 10, 4-amino-6-(1H-indol-5-yloxy)-pyrimidine-5-carbaldehyde O-methyl-oxime]
> 100 | 0.233 | ~10 | > 100 | 0.387 | > 100 | 0.308 | – | COCCON=Cc1c(N)ncnc1Oc1ccc2[nH]c(C)cc2c1F [Cpd 28, 4-amino-6-(4-fluoro-2-methyl-1H-indol-5-yloxy)-pyrimidine-5-carbaldehyde O-(2-methoxy-ethyl)-oxime]
> 100 | 0.492 | 0.653 | > 100 | 0.365 | > 0.1 | 0.401 | – | CON=Cc1c(N)ncnc1Oc1ccc2[nH]ccc2c1F [Cpd 7, 4-amino-6-(4-fluoro-1H-indol-5-yloxy)-pyrimidine-5-carbaldehyde O-methyl-oxime]
> 100 | 0.027 | > 100 | > 100 | 0.036 | > 100 | 0.032 | – | CCON=Cc1c(N)ncnc1Oc1ccc2[nH]c(C)cc2c1F [Cpd 1, 4-amino-6-(4-fluoro-2-methyl-1H-indol-5-yloxy)-pyrimidine-5-carbaldehyde O-ethyl-oxime]
> 100 | > 100 | > 100 | > 100 | > 100 | – | > 100 | 0.0072 | CCCCNC(=O)Nc1ccc(Oc2ncnc(N)c2C=NOC)cc1Cl [Cpd 64, 1-{4-[6-amino-5-(methoxyimino-methyl)-pyrimidin-4-yloxy]-2-chloro-phenyl}-3-butyl-urea]
> 100 | 3.77 | > 10 | > 100 | 3.43 | – | 4.37 | 0.108 | CON=Cc1c(N)ncnc1Oc1ccc2c(c1)cc(C)n2C(=O)NCCO [Cpd 39, 5-[6-amino-5-(methoxyimino-methyl)-pyrimidin-4-yloxy]-2-methyl-indole-1-carboxylic acid (2-hydroxy-ethyl)-amide]
> 100 | > 10 | > 100 | > 100 | > 10 | – | > 10 | > 100 | CON=Cc1c(N)ncnc1Oc1ccc2c(c1)cc(C)n2C(=O)NCc1ccccc1 [Cpd 47, 5-[6-amino-5-(methoxyimino-methyl)-pyrimidin-4-yloxy]-2-methyl-indole-1-carboxylic acid benzylamide]
> 100 | > 1 | > 10 | > 100 | > 1 | – | > 1 | 0.0191 | C=CCNC(=O)Nc1ccc(Oc2ncnc(N)c2C=NOC)cc1Cl [Cpd 53, 1-allyl-3-{4-[6-amino-5-(methoxyimino-methyl)-pyrimidin-4-yloxy]-2-chloro-phenyl}-urea]
> 100 | > 10 | > 1 | > 100 | > 100 | – | > 100 | ~100 | CON=Cc1c(N)ncnc1Oc1ccc(NC(=O)Nc2ccc(F)cc2)c(Br)c1 [Cpd 74, 1-{4-[6-amino-5-(methoxyimino-methyl)-pyrimidin-4-yloxy]-2-bromo-phenyl}-3-(4-fluoro-phenyl)-urea]
